Experimental data as given in patent US20080175794A1, “Substituted Pyridazinyl- and Pyrimidinyl-Quinolin-4-Ylamine Analogues” (NEUROGEN CORPORATION, priority 2005, published 2008).

biological target: T1, human capsaicin receptor (Homo sapiens, UniProt Q8NER1); test: Calcium mobilization assay, determination of antagonist activity (Example 6); type: cell-based; conditions: Table III; assay provided in Example 6; cells expressing human capsaicin receptor, capsaicin at EC50
T1 construct: expressed in transfected cells
T1 sequence (Q8NER1 whole entry): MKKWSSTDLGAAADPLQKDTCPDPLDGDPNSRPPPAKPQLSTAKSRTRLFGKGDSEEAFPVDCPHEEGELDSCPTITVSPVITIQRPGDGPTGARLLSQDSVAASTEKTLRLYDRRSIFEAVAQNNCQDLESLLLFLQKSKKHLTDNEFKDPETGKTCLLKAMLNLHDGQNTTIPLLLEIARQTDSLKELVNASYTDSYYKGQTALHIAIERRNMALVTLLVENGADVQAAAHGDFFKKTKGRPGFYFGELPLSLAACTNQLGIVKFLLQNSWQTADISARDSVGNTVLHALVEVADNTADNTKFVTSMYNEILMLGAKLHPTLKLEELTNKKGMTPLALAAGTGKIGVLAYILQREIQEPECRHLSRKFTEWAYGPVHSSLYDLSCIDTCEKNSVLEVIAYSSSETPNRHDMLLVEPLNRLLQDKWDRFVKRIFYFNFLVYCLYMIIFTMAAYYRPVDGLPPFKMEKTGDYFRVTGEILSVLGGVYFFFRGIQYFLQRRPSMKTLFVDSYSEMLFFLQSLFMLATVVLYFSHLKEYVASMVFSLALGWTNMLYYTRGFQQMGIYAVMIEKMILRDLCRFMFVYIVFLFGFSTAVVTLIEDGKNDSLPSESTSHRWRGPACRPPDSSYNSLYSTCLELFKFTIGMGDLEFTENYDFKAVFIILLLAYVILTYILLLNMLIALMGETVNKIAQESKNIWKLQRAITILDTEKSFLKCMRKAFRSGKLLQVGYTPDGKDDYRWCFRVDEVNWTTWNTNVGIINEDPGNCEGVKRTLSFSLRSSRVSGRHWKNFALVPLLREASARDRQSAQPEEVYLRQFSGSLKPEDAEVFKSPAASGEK
Summary of the method: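 Stable HEK293 clones expressing full-length human capsaicin receptor, loaded with Fluo-3 AM in KRH buffer pH 7.4 (1–2 h, 37 °C). Test compound (1–5 μM final) preincubated 0.5–6 h at room temperature in the dark, then capsaicin added at its EC50. FLIPR/Fluoroskan calcium signal; IC50 as concentration halving the capsaicin response.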

| IC50 | SMILES |
| --- | --- |
| < 1000 nM | FC(F)(F)c1ccc(Nc2ccnc3nc(-c4nnc(N5CCOCC5)cc4C(F)(F)F)cnc23)nc1 [Compound 53, 3-[6-morpholin-4-yl-4-(trifluoromethyl)pyridazin-3-yl]-N-[5-(trifluoromethyl)pyridin-2-yl]pyrido[2,3-b]pyrazin-8-amine] |
| < 1000 nM | CC(CO)Nc1cc(C(F)(F)F)c(-c2cnc3c(Nc4ccc(C(F)(F)F)cn4)ccnc3n2)nn1 (centres unmarked) [Compound 117, 2-{[5-(trifluoromethyl)-6-(8-{[5-(trifluoromethyl)pyridin-2-yl]amino}pyrido[2,3-b]pyrazin-3-yl)pyridazin-3-yl]amino}propan-1-ol] |
| < 1000 nM | CCN(c1cc(C(F)(F)F)c(-c2cnc3c(Nc4ccc(C(F)(F)F)cn4)ccnc3n2)nn1)C(C)C [Compound 128, 3-{6-[ethyl(isopropyl)amino]-4-(trifluoromethyl)pyridazin-3-yl}-N-[5-(trifluoromethyl)pyridin-2-yl]pyrido[2,3-b]pyrazin-8-amine] |
| < 1000 nM | CCN(CC)CCNc1cc(C(F)(F)F)c(-c2cnc3c(Nc4ccc(C(F)(F)F)cn4)ccnc3n2)nn1 [Compound 70, N,N-diethyl-N′-[5-(trifluoromethyl)-6-(8-{[5-(trifluoromethyl)pyridin-2-yl]amino}pyrido[2,3-b]pyrazin-3-yl)pyridazin-3-yl]ethane-1,2-diamine] |
| < 1000 nM | CN(C)c1cc(C(F)(F)F)c(-c2cnc3c(Nc4ccc(C(F)(F)F)cn4)ccnc3n2)nn1 [Compound 54, 3-[6-(dimethylamino)-4-(trifluoromethyl)pyridazin-3-yl]-N-[5-(trifluoromethyl)pyridin-2-yl]pyrido[2,3-b]pyrazin-8-amine] |
| < 1000 nM | CC1CCCN1c1cc(C(F)(F)F)c(-c2cnc3c(Nc4ccc(C(F)(F)F)cn4)ccnc3n2)nn1 (centres unmarked) [Compound 129, 3-[6-(2-methylpyrrolidin-1-yl)-4-(trifluoromethyl)pyridazin-3-yl]-N-[5-(trifluoromethyl)pyridin-2-yl]pyrido[2,3-b]pyrazin-8-amine] |
| < 1000 nM | CC(C)Nc1nc(Nc2ccnc3nc(-c4nnccc4C(F)(F)F)cnc23)ccc1C(F)(F)F [Compound 48, N2-isopropyl-3-(trifluoromethyl)-N-~6~-{3-[4-(trifluoromethyl)pyridazin-3-yl]pyrido[2,3-b]pyrazin-8-yl}pyridine-2,6-diamine] |
| < 1000 nM | CC(C)(CO)Nc1cc(C(F)(F)F)c(-c2cnc3c(Nc4ccc(C(F)(F)F)cn4)ccnc3n2)nn1 [Compound 171, 2-methyl-2-{[5-(trifluoromethyl)-6-(8-{[5-(trifluoromethyl)pyridin-2-yl]amino}pyrido[2,3-b]pyrazin-3-yl)pyridazin-3-yl]amino}propan-1-ol] |
| < 1000 nM | CS(=O)(=O)c1ccc(Nc2ccnc3nc(-c4nnccc4C(F)(F)F)cnc23)nc1 [Compound 47, N-[5-(methylsulfonyl)-2-pyridinyl]-3-[4-(trifluoromethyl)-3-pyridazinyl]pyrido[2,3-b]pyrazin-8-amine] |
| < 1000 nM | CCCN(CCO)c1cc(C(F)(F)F)c(-c2cnc3c(Nc4ccc(C(F)(F)F)cn4)ccnc3n2)nn1 [Compound 134, 2-{propyl[5-(trifluoromethyl)-6-(8-{[5-(trifluoromethyl)pyridin-2-yl]amino}pyrido[2,3-b]pyrazin-3-yl)pyridazin-3-yl]amino}ethanol] |
| < 1000 nM | CCOc1nc(Nc2ccnc3nc(-c4nnccc4C(F)(F)F)cnc23)ccc1C(F)(F)F [Compound 44, N-[6-ethoxy-5-(trifluoromethyl)-2-pyridinyl]-3-[4-(trifluoromethyl)-3-pyridazinyl]pyrido[2,3-b]pyrazin-8-amine] |
| < 1000 nM | CN1CCN(CCCNc2cc(C(F)(F)F)c(-c3cnc4c(Nc5ccc(C(F)(F)F)cn5)ccnc4n3)nn2)CC1 [Compound 81, 3-[6-{[3-(4-methylpiperazin-1-yl)propyl]amino}-4-(trifluoromethyl)pyridazin-3-yl]-N-[5-(trifluoromethyl)pyridin-2-yl]pyrido[2,3-b]pyrazin-8-amine] |

same assay, conditions: assay provided in Example 6; cells expressing human capsaicin receptor, capsaicin at EC50

| IC50 | SMILES |
| --- | --- |
| < 1000 nM | FC(F)(F)c1ccc(Nc2ccnc3nc(-c4nnccc4C(F)(F)F)ccc23)nc1 [Compound 1, N-[5-(Trifluoromethyl)pyridin-2-yl]-7-[4-(trifluoromethyl)pyridazin-3-yl]-1,8-naphthyridin-4-amine] |

biological target: VR (Homo sapiens, UniProt Q8NER1); test: not given; conditions: typical value, non-selective cation channel blocker binding to VR; cited from earlier work
Sequence (Q8NER1 whole entry): as above

| SMILES | Ki |
| --- | --- |
| Cl.Cl.Cl.Cl.Cl.Cl.N.N.N.N.N.N.N.N.N.N.N.N.N.N.[O-2].[O-2].[Ru+3].[Ru+3].[Ru+4] [ruthenium red] | ≥ 140 µM |
